Assay results: patent US5480870A, “Tumor growth-inhibiting somatostatin analogues, pharmaceutical compositions containing them and process for preparing same” (Biosignal Kutato-Fejlesztokft, priority 1991, dated 1996)

Experiments:
[1] = test system: HT 29: tumour cell line of human colon origin; test: Assay of the inhibition of cell division, HT 29; assay type: cell-based
Procedure: (§1) The incorporation of [^3 H]-thymidine to tumour cells of various origin and measurement of the cell count were carried out according to the method of Keri et al. [Tumor Biology 9, 315 (1988)]. The biological activity of the analogues was expressed as the percentage of inhibition of the labelled thymidine incorporation or increase in the count of untreated cells used as control (Table III).

[2] = test system: tyrosine kinase (HT 29 cells); test: Assay of the tyrosine kinase activity, HT 29 cells; assay type: cell-based, human
Procedure: The tyrosine kinase activity was also determined according to the method of Keri et al. [Tumor Biology 9, 315 (1988)]. The activity of the analogues was characterized on the basis of their inhibitory effect in comparison to the incorporation of ^32 p isotope to untreated cells used as control (Table IV).

[3] = test system: rat hypophysis (GH release); test: Assay of the growth hormone (GH): GHRH-elicited GH release, superfusion method; assay type: cell-based; conditions: percentage of decrease (-) or increase (+) in GH amount released by GHRH
Procedure: The release or inhibition, respectively, of the release of GH were measured on rat hypophysis by using the superfusion method [Vigh et al.: Peptides 5, 241 (1984)]. As control, the GH amount was considered which was released by the GH releasing hormone (GHRH) given in the same dose as the sample. The activity of the somatostatin analogue was expressed as the percentage of decrease or increase, respectively, in the GH amount released by GHRH (Table II).

[4] = test system: MCF 7: tumour cell line of human breast origin; test: Assay of the inhibition of cell division, MCF 7; assay type: cell-based
Procedure: as §1

Substance | Inhibition (%) of cell division ([1]; HT 29, dose 10 μg) [%] | Inhibition (%) of tyrosine kinase activity ([2]; HT 29, dose 10 μg) [%] | Inhibition (%) of tyrosine kinase activity ([2]; HT 29, dose 30 μg) [%] | Change of GH release [3] | Inhibition (%) of cell division ([4]; MCF 7, dose 20 μg) [%] | Inhibition (%) of cell division ([1]; HT 29, dose 20 μg) [%] | Inhibition (%) of tyrosine kinase activity ([2]; HT 29, dose 1 μg, 32P incorporation vs untreated cells) [%] | Inhibition (%) of cell division ([4]; MCF 7, dose 40 μg) [%]
Ac-Sar-Ala-Tyr-Tyr-Aa-Lys-Val-Phe-Trp-NH2 [Example 7] | 28 | 17 | 23 | -20% | 24 | – | – | –
D-Phe-Cys-Tyr-D-Trp-Lys-Val-Cys-Thr-NH2 [Example 2] | – | 22 | – | -93% | 45 | 27 | 35 | –
D-Phe-Tyr-Tyr-Aa-Lys-Val-Phe-Trp-NH2 [Example 6] | – | – | – | +26% | – | – | – | 48
